Test results taken from patent US20220274947A1, “NOVEL HETEROARYL-TRIAZOLE COMPOUNDS AS PESTICIDES” (Bayer Aktiengesellschaft, priority 2019, published 2022).

Tests used:
Format in all cases: in vivo
Spodoptera frugiperda = Spodoptera frugiperda spray test; details: in Zea mays, 168 h, read-out: activity (mortality)
Method in brief: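 Maize leaf sections were sprayed with compound formulated in acetone/DMF and diluted in water containing 1000 ppm emulsifier. Dried leaves were infested with fall armyworm larvae, and percent mortality was scored after 7 days.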

[1] = test system: Culex quinquefasciatus strain P00; assay: Culex quinquefasciatus test (CULXFA surface treatment & contact assay); details: surface concentration 20 mg/m^2, glazed tile, exposure 30 minutes, 24 hours after contact, read-out: efficacy (mortality)
Experimental: Culex quinquefasciatus Test (CULXFA Surface Treatment & Contact Assay) Solvent: Aceton+2000 ppm rapeseed oil methyl ester (RME)
(§1) In order to produce a sufficient, active ingredient containing solution it is necessary to solve the test compound in the solvent-mix (acetone at 2 mg/ml/RME 2 000 ppm). This solution is pipetted onto a glazed tile and after evaporation of the acetone, adult mosquitoes of the species Culex quinquefasciatus strain P00 are placed onto the dried surface. The exposure time is 30 minutes. Mortality in percent (%) is determined 24 hours after contact of the insects to the treated surface. 100% mortality means that all tested insects are dead, whereas 0% means that no insect died.

Rhipicephalus microplus [2] = assay: Rhipicephalus (Boophilus) microplus injection test (BOOPMI Inj); details: 168 h, injection into adult engorged female ticks, egg deposition after 7 days, read-out: activity (efficacy: 100% means all eggs are infertile); for pest or weed control at 0.004 mg: application rate 4 μg/tick; for pest or weed control at 0.02 mg: application rate 20 μg/tick
Method in brief: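 Five engorged adult female R. microplus ticks injected into the abdomen with 1 μL of compound diluted in DMSO, then kept in a climate chamber. Fertile egg deposition checked after 7 days; eggs without visible fertility held until hatching at about 42 days. Efficacy: 100% = all eggs infertile, 0% = all fertile.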

Ctenocephalides felis [3] = assay: Ctenocephalides felis in-vitro contact test, adult cat flea (CTECFE Cont); details: application rate 5 μg/cm^2 (=500 g/ha), adult cat fleas, after 48 hours, read-out: activity (efficacy: 100% means all fleas are dead or moribund)
Method in brief: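 Acetone solutions coated on glass tube inner walls (900 ppm giving 5 μg/cm^2), then 5-10 adult fleas added and held 48 h at room temperature. Fleas unable to escape a 45-50° C. heating plate within 5 min scored dead or moribund; efficacy = % dead/moribund.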

[4] = test system: Aedes aegypti strain MONHEIM; assay: Aedes aegypti test (AEDSAE surface treatment & contact assay); details: exposure 30 minutes, 24 hours after contact, read-out: efficacy (mortality); for mortality at 20 mg/m2: surface concentration 20 mg/m^2, glazed tile
Method in brief: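 Compound dissolved in acetone (2 mg/ml) with 2000 ppm rapeseed oil methyl ester, pipetted onto glazed tile and dried. Adult mosquitoes exposed on the surface for 30 min; percent mortality scored 24 h after contact.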

Ctenocephalides felis [5] = assay: Ctenocephalides felis oral test (CTECFE Oral); details: 48 h, read-out: activity (mortality)
Method in brief: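 About 20 unfed adult cat fleas fed through parafilm on cattle blood containing compound (DMSO concentrate diluted in blood to the desired concentration). Blood held at 37 °C, fleas at room temperature. Mortality (%) scored after 2 days.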

Diabrotica balteata = Diabrotica balteata spray test; details: 168 h, wheat seeds, larvae, after 7 days, read-out: activity (efficacy: 100% means all seedlings have grown up like in the untreated, uninfected control); for pest or weed control at 160 µg/disc, 500 g/ha: application rate 500 g/ha (=160 μg/well); for pest or weed control at 32 µg/disc, 100 g/ha: application rate 100 g/ha (=32 μg/well)
Method in brief: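 Wheat seedlings, germinated 1 day on agar, were sprayed with compound in acetone/DMF diluted in water containing emulsifier, then infested with 10-20 Diabrotica balteata larvae. After 7 days efficacy in % was scored: 100% means seedlings grew like the untreated, uninfected control; 0% means none grew.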

Rhipicephalus microplus [6] = assay: Rhipicephalus (Boophilus) microplus in-vitro contact test, larval cattle tick, strain Parkhurst (BOOPMI Cont); details: application rate 5 μg/cm^2 (=500 g/ha), tick larvae, after 48 hours, read-out: activity (efficacy: 100% means all larvae are dead or moribund)
Method in brief: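 Acetone solutions dried onto glass tube walls (900 ppm giving 5 μg/cm^2); 20-50 pyrethroid-resistant Parkhurst larvae added per tube and held 48 h at 27° C., 85% relative humidity. Efficacy scored by negative geotaxis as % dead or moribund larvae.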

Rhipicephalus sanguineus = Rhipicephalus sanguineus in-vitro contact test, adult brown dog ticks (RHIPSA Cont); details: 48 h, after 48 hours, read-out: activity (efficacy: 100% means all ticks are dead or moribund); for pest or weed control at 5 µg/cm2, 500 g/ha: application rate 5 μg/cm^2 (=500 g/ha)
Method in brief: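 Compound in acetone (9 mg/mL stock, diluted to test concentration) is coated onto inner walls of glass tubes by rotation for 2 h at 30 rpm. Efficacy is read after 48 h: ticks are tapped down and held on a 45-50° C plate for at most 5 min, and immotile or uncoordinated ones that fail to climb away count as dead or moribund.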

Nezara viridula = Nezara viridula spray test; details: in Hordeum vulgare, 96 h, application rate 500 g/ha, barley plants, larvae, after 4 days
Method in brief: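 Barley plants infested with N. viridula larvae were sprayed with compound in acetone/DMF diluted with water containing 1000 ppm alkylarylpolyglycol ether emulsifier. Mortality (%) was scored after 4 days; 100% means all bugs killed, 0% none.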

Myzus persicae = Myzus persicae spray test; details: in Brassica rapa, foliar, 120 h
Experimental: Myzus persicae—Spray Test Solvent: 78.0 parts by weight acetone • 1.5 parts by weight dimethylformamide Emulsifier: alkylarylpolyglycol ether To produce a suitable preparation of active compound, 1 part by weight of active compound is mixed with the stated amount of solvents and is diluted with water, containing an emulsifier concentration of 1000 ppm, to the desired concentration. Further test concentrations are prepared by dilution with emulsifier containing water.
Chinese cabbage (Brassica pekinensis) leaf disks infected with all instars of the green peach aphid (Myzus persicae), are sprayed with a preparation of the active ingredient of the desired concentration.
After 5 days mortality in % is determined. 100% means all aphids have been killed and 0% means none of the aphids have been killed.

[7] = test system: Anopheles funestus strain FUMOZ-R; assay: Anopheles funestus test (ANPHFU surface treatment & contact assay); details: exposure 30 minutes, 24 hours after contact, read-out: efficacy (mortality); for mortality at 20 mg/m2: surface concentration 20 mg/m^2, glazed tile
Experimental: Anopheles funestus Test (ANPHFU Surface Treatment & Contact Assay) Solvent: Aceton+2000 ppm rapeseed oil methyl ester (RME)
as §1, with “2000” for “2 000”, “Anopheles funestus” for “Culex quinquefasciatus”, “FUMOZ-R (Hunt et al., Med. Vet. Entomol. 2005 September; 19(3): 271-275)” for “P00”

[8] = test system: Musca domestica strain WHO—N; assay: Musca domestica test (MUSCDO surface treatment & contact assay); details: surface concentration 20 mg/m^2, glazed tile, exposure 30 minutes, 24 hours after contact, read-out: efficacy (mortality)
Method in brief: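 Compound dissolved in acetone (2 mg/ml) with 2000 ppm rapeseed oil methyl ester and pipetted onto glazed tile; after acetone evaporation, adult flies exposed to dried surface for 30 minutes. Mortality (%) scored 24 hours after contact.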

[9] = surface concentration 4 mg/m^2, glazed tile

SMILES | mortality at 100 g/ha (Spodoptera frugiperda) [%] | mortality at 500 g/ha (Spodoptera frugiperda) [%] | mortality at 20 mg/m2 [1] [%] | pest or weed control at 0.004 mg (Rhipicephalus microplus [2]) [%] | pest or weed control at 0.02 mg (Rhipicephalus microplus [2]) [%] | pest or weed control at 5 µg/cm2 (Ctenocephalides felis [3]) [%] | mortality at 4 mg/m2 [4, 9] [%] | mortality at 20 mg/m2 [4] [%] | mortality at 100 ppm (Ctenocephalides felis [5]) [%] | pest or weed control at 160 µg/disc, 500 g/ha (Diabrotica balteata) [%] | pest or weed control at 5 µg/cm2 (Rhipicephalus microplus [6]) [%] | pest or weed control at 5 µg/cm2, 500 g/ha (Rhipicephalus sanguineus) [%] | mortality at 500 g/ha (Nezara viridula) [%] | pest or weed control at 32 µg/disc, 100 g/ha (Diabrotica balteata) [%] | mortality at 100 g/ha (Myzus persicae; read-out: activity (mortality), application rate 100 g/ha, spray, Chinese cabbage leaf disks, after 5 days) [%] | mortality at 500 g/ha (Myzus persicae; read-out: activity (mortality), application rate 500 g/ha, spray, Chinese cabbage leaf disks, after 5 days) [%] | mortality at 4 mg/m2 [7, 9] [%] | mortality at 20 mg/m2 [7] [%] | mortality at 20 mg/m2 [8] [%] | pest or weed control at 1 µg/cm2, 100 g/ha (Rhipicephalus sanguineus; application rate 1 μg/cm^2 (=100 g/ha)) [%]
C[C@H](NC(=O)c1cc(Cl)cc(C(F)(F)F)c1)c1ncnn1-c1cnc(C#N)cn1 [II-1] | 100 | 100 | 80 to 100 | 100 | 100 | 90 | 80 to 100 | 80 to 100 | 100 | 100 | 90 | 80 | – | – | – | – | – | – | – | –
CC(C)C(=O)Nc1ccc(-n2ncnc2[C@H](C)NC(=O)c2cc(Cl)cc(C(F)(F)F)c2)nc1 [II-2, 3-chloro-N-[(1S)-1-{1-[5-(isobutyrylamino)pyridin-2-yl]-1H-1,2,4-triazol-5-yl}ethyl]-5-(trifluoromethyl)benzamide] | – | – | 80 to 100 | 100 | 100 | 90 | – | – | 100 | 100 | 100 | – | 90 | 100 | 100 | 90 | – | – | – | –
C[C@H](NC(=O)c1cccc(C(F)(F)F)n1)c1ncnn1-c1ccc(C#N)cn1 [II-4] | 100 | 100 | 80 to 100 | – | 100 | – | – | 80 to 100 | – | 100 | – | 100 | – | 80 | – | – | 80 to 100 | 80 to 100 | 80 to 100 | 100
C[C@H](NC(=O)c1cc(Cl)cc(C(F)(F)F)c1)c1ncnn1-c1cc(-n2ccc(C(F)(F)F)n2)ccn1 [II-42] | 100 | 100 | 80 to 100 | 80 | 0 | – | – | – | – | 100 | 90 | – | – | 100 | – | – | – | 80 to 100 | – | –
